Earlier results on six compounds are cited in PubChem BioAssay AID1259409 (Chemical Carcinogenesis Research Information System (CCRIS), 2018).

Where “and” joins values, the source holds several entries; their conditions need not be identical. Equal entries are not always repeated.

The test system of the data set is rodent chemically induced tumor inhibition, incidence and multiplicity. The experiment in a line: CCRIS tumor inhibitor studies.

For `CCS(=O)(=O)c1ccc(/C=C(\C)c2ccc3c(c2)C(C)(C)CCC3(C)C)cc1`, the “tumour outcome (control, treated, inhibition, significance)” value (Carcinogen: 7,12-DIMETHYLBENZ[A]ANTHRACENE, 57-97-6, Dose [Inhibitor]: 0, 3 MG/KG/D IN FEED REDUCED AFTER 4 WK TO 2.2 MG/KG/D (STUDY DURATION: 13 WK), Route [Inhibitor]: ORAL, Species: RAT, Strain/Sex: SPRAGUE-DAWLEY/FEMALE, Target Tissue: Type of Lesion: MAMMARY GLAND: TUMOR, Dose [Carcinogen]: 15 MG IN ARACHIS OIL ONCE AT 50 D OF AGE, Promoter: NONE USED) was 96%, 73%, 24%, not calculated.

Take `CC1=CCC(=O)O1`: the “tumour outcome (control, treated, inhibition, significance)” value (Carcinogen: BENZO[A]PYRENE, 50-32-8, Dose [Inhibitor]: 0.034 MMOL/G IN DIET FOR 5 WK (STUDY DURATION: 21 WK), Route [Inhibitor]: ORAL, Species: MOUSE, Strain/Sex: ICR/HA/FEMALE, Target Tissue: Type of Lesion: FORESTOMACH: TUMOR, Dose [Carcinogen]: 1 MG IN 0.2 ML CORN OIL, 2/WK FOR 4 WK STARTING ON D 8 OF EXPERIMENT, Promoter: NONE USED) was 95%, 42%, 56%, p<0.01 and 95%, 53%, 44%, p<0.01.

As to `C[C@H]1CCCC(=O)CCC/C=C/c2cc(O)cc(O)c2C(=O)O1`, the “tumour outcome (control, treated, inhibition, significance)” value (Carcinogen: 7,12-DIMETHYLBENZ[A]ANTHRACENE [57-97-6], Dose [Inhibitor]: 20 UG/L IN 0.05 ML PEANUT OIL 2X/WK FOR 2 WK BEGINNING AT 7 D OF AGE (STUDY DURATION: 24 WK), Route [Inhibitor]: SUBCUTANEOUS, Species: RAT, Strain/Sex: SPRAGUE-DAWLEY/FEMALE, Target Tissue: Type of Lesion: MAMMARY GLAND: TUMOR, Dose [Carcinogen]: 10 MG IN 1 ML PEANUT OIL ONCE AT 45 D OF AGE (STUDY DURATION: 24 WK), Promoter: NONE) was 17/30 (57%), 9/30 (30%), 47%, p<0.018.

Regarding `CC(C(=O)O)c1ccc2c(c1)[nH]c1ccc(Cl)cc12` (stereo not drawn), the “tumour outcome (control, treated, inhibition, significance)” value (Carcinogen: 7,12-DIMETHYLBENZ[A]ANTHRACENE, 57-97-6, Dose [Inhibitor]: 0, 0.02% IN 20% FAT DIET CONTAINING 0.5% LINOLEIC ACID BEGINNING 7 D POST CARCINOGEN DOSE AND CONTINUING FOR DURATION OF, Route [Inhibitor]: ORAL, Species: RAT, Strain/Sex: SPRAGUE-DAWLEY/FEMALE, Target Tissue: Type of Lesion: MAMMARY GLAND: ADENOCARCINOMA, Dose [Carcinogen]: 5 MG AT 50-53 DAYS OF AGE, Promoter: NONE USED) was 56%, 52%, 7%, not calculated; the “tumour outcome (control, treated, inhibition, significance)” value (Carcinogen: 7,12-DIMETHYLBENZ[A]ANTHRACENE, 57-97-6, Dose [Inhibitor]: 0, 0.02% IN 20% FAT DIET CONTAINING 4% LINOLEIC ACID BEGINNING 7 D POST CARCINOGEN DOSE AND CONTINUING FOR DURATION OF S, Route [Inhibitor]: ORAL, Species: RAT, Strain/Sex: SPRAGUE-DAWLEY/FEMALE, Target Tissue: Type of Lesion: MAMMARY GLAND: ADENOCARCINOMA, Dose [Carcinogen]: 5 MG AT 50-53 DAYS OF AGE, Promoter: NONE USED) was 53%, 61%, -15%, not calculated; the “tumour outcome (control, treated, inhibition, significance)” value (Carcinogen: 7,12-DIMETHYLBENZ[A]ANTHRACENE, 57-97-6, Dose [Inhibitor]: 0, 0.02% IN 20% FAT DIET CONTAINING 12% LINOLEIC ACID BEGINNING 7 D POST CARCINOGEN DOSE AND CONTINUING FOR DURATION OF, Route [Inhibitor]: ORAL, Species: RAT, Strain/Sex: SPRAGUE-DAWLEY/FEMALE, Target Tissue: Type of Lesion: MAMMARY GLAND: ADENOCARCINOMA, Dose [Carcinogen]: 5 MG AT 50-53 DAYS OF AGE, Promoter: NONE USED) is 69%, 55%, 20%, not calculated; the “tumour outcome (control, treated, inhibition, significance)” value (Carcinogen: 7,12-DIMETHYLBENZ[A]ANTHRACENE, 57-97-6, Dose [Inhibitor]: 0, 0.02% IN HIGH FAT DIET (20% CORN OIL) BEGINNING 7 D POST CARCINOGEN DOSE AND CONTINUING FOR DURATION OF STUDY (STUDY, Route [Inhibitor]: ORAL, Species: RAT, Strain/Sex: SPRAGUE-DAWLEY/FEMALE, Target Tissue: Type of Lesion: MAMMARY GLAND: ADENOCARCINOMA, Dose [Carcinogen]: 5 MG AT 50-53 DAYS OF AGE, Promoter: NONE USED) is given as 88%, 91%, -3%, not calculated; the “tumour outcome (control, treated, inhibition, significance)” value (Carcinogen: 7,12-DIMETHYLBENZ[A]ANTHRACENE, 57-97-6, Dose [Inhibitor]: 0, 0.02% IN HIGH FAT DIET (20% CORN OIL) BEGINNING 7 D POST CARCINOGEN DOSE AND CONTINUING FOR DURATION OF STUDY (STUDY, Route [Inhibitor]: ORAL, Species: RAT, Strain/Sex: SPRAGUE-DAWLEY/FEMALE, Target Tissue: Type of Lesion: MAMMARY GLAND: TUMOR, Dose [Carcinogen]: 5 MG AT 50-53 DAYS OF AGE, Promoter: NONE USED) is reported as 47%, 56%, -19%, not calculated; the “tumour outcome (control, treated, inhibition, significance)” value (Carcinogen: 7,12-DIMETHYLBENZ[A]ANTHRACENE, 57-97-6, Dose [Inhibitor]: 0, 0.02% IN NORMAL FAT DIET (5% CORN OIL) BEGINNING 7 D POST CARCINOGEN DOSE AND CONTINUING FOR DURATION OF STUDY (STUDY, Route [Inhibitor]: ORAL, Species: RAT, Strain/Sex: SPRAGUE-DAWLEY/FEMALE, Target Tissue: Type of Lesion: MAMMARY GLAND: ADENOCARCINOMA, Dose [Carcinogen]: 5 MG AT 50-53 DAYS OF AGE, Promoter: NONE USED) was 59%, 83%, -41%, not calculated.

On to `O=c1ccc2ccccc2o1`, for which the “tumour outcome (control, treated, inhibition, significance)” value by setting is: (Carcinogen: 7,12-DIMETHYLBENZ(A)ANTHRACENE, 57-97-6, Dose [Inhibitor]: 0.034 MMOL/G IN DIET BEGINNING 1 D PRIOR TO CARCINOGEN DOSE AND CONTINUING FOR 8 D (STUDY DURATION: 23 WK), Route [Inhibitor]: ORAL, Species: RAT, Strain/Sex: SPRAGUE-DAWLEY/FEMALE, Target Tissue: Type of Lesion: MAMMARY GLAND: TUMOR, Dose [Carcinogen]: 12 MG IN 1.0 ML OLIVE OIL ONCE, Promoter: NONE USED) 86%, 31%, 64%, p<0.01; (Carcinogen: 7,12-DIMETHYLBENZ[A]ANTHRACENE, 57-97-6, Dose [Inhibitor]: 0.068 MMOL/G IN DIET BEGINNING 7 D PRIOR TO CARCINOGEN DOSE AND CONTINUING FOR 8 D (STUDY DURATION: 23 WK), Route [Inhibitor]: ORAL, Species: RAT, Strain/Sex: SPRAGUE-DAWLEY/FEMALE, Target Tissue: Type of Lesion: MAMMARY GLAND: TUMOR, Dose [Carcinogen]: 12 MG IN 1.0 ML OLIVE OIL, Promoter: NONE USED) 86%, 14%, 84%, p<0.01,; (Carcinogen: BENZO[A]PYRENE, 50-32-8, Dose [Inhibitor]: 0.068 MMOL/G IN DIET FOR 5 WK BEGINNING 1 WK PRIOR TO CARCINOGEN TREATMENT (STUDY DURATION: 21 WK), Route [Inhibitor]: ORAL, Species: MOUSE, Strain/Sex: ICR/FEMALE, Target Tissue: Type of Lesion: FORESTOMACH: TUMOR, Dose [Carcinogen]: 1 MG IN 0.2 ML CORN OIL, 2/WK FOR 4 WK, Promoter: NONE USED) 100%, 61%, 39%, p<0.05.

Regarding `CC(C)CC(CN[C@@H](CC(C)C)C(N)=O)NC(=O)[C@H](Cc1cnc[nH]1)NC(=O)CNC(=O)[C@@H](NC(=O)C(C)NC(=O)[C@H](Cc1c[nH]c2ccccc12)NC(=O)[C@H](CCC(N)=O)NC(=O)[C@H]1Cc2c([nH]c3ccccc23)CN1)C(C)C` (stereo partly drawn), the “tumour outcome (control, treated, inhibition, significance)” value (Carcinogen: N-NITROSOBIS(2-OXOPROPYL)AMINE, 60599-38-4, Dose [Inhibitor]: 0, 5 UG/D FROM OSMOTIC PUMP FOR 2 MO, Route [Inhibitor]: SUBCUTANEOUS IMPLANT, Species: HAMSTER, Strain/Sex: SYRIAN/FEMALE, Target Tissue: Type of Lesion: PANCREAS: ADENOCARCINOMA) is listed as 10/11 (91%), 7/11 (64%), 30%, not calculated; the “tumour outcome (control, treated, inhibition, significance)” value (Carcinogen: N-NITROSOBIS(2-OXOPROPYL)AMINE, 60599-38-4, Dose [Inhibitor]: 0, 20 UG/D BEGINNING 18 WK POST CARCINOGEN TREATMENT AND CONTINUING FOR 8 WK (STUDY DURATION: 32 WK), Route [Inhibitor]: SUBCUTANEOUS, Species: HAMSTER, Strain/Sex: SYRIAN/FEMALE, Target Tissue: Type of Lesion: PANCREAS: ADENOCARCINOMA, Dose [Carcinogen]: TREATMENT FOR 6 WK (DOSE NOT STATED), Promoter: NONE USED) is reported as 12/12 (100%), 9/12 (75%), 25%, not significant; the “tumour outcome (control, treated, inhibition, significance)” value (Carcinogen: N-NITROSOBIS(2-OXOPROPYL)AMINE, 60599-38-4, Dose [Inhibitor]: 0, 20 UG/D FROM OSMOTIC PUMP FOR 2 MO, Route [Inhibitor]: SUBCUTANEOUS IMPLANT, Species: HAMSTER, Strain/Sex: SYRIAN/FEMALE, Target Tissue: Type of Lesion: PANCREAS: ADENOCARCINOMA, Promoter: NONE USED) was 12/12 (100%), 6/12 (50%), 50%, not calculated; the “tumour outcome (control, treated, inhibition, significance)” value (Carcinogen: N-NITROSOBIS(2-OXOPROPYL)AMINE, 60599-38-4, Dose [Inhibitor]: 0, 30 UG/D BEGINNING 18 WK POST CARCINOGEN TREATMENT AND CONTINUING FOR 8 WK (STUDY DURATION: 32 WK), Route [Inhibitor]: SUBCUTANEOUS, Species: HAMSTER, Strain/Sex: SYRIAN/FEMALE, Target Tissue: Type of Lesion: PANCREAS: ADENOCARCINOMA, Dose [Carcinogen]: TREATMENT FOR 6 WK (DOSE NOT STATED), Promoter: NONE USED) is on record as 11/12 (92%), 8/12 (67%), 27%, not significant; the “tumour outcome (control, treated, inhibition, significance)” value (Carcinogen: N-NITROSOBIS(2-OXOPROPYL)AMINE, 60599-38-4, Dose [Inhibitor]: 0, 30 UG/D FOR 2 MO, Route [Inhibitor]: SUBCUTANEOUS, Species: HAMSTER, Strain/Sex: SYRIAN/FEMALE, Target Tissue: Type of Lesion: PANCREAS: ADENOCARCINOMA) is recorded as 11/13 (85%), 12/13 (92%), -8%, not calculated; the “tumour outcome (control, treated, inhibition, significance)” value (Carcinogen: N-NITROSOBIS(2-OXOPROPYL)AMINE, 60599-38-4, Dose [Inhibitor]: 0, 60 UG/D BEGINNING 18 WK POST CARCINOGEN TREATMENT AND CONTINUING FOR 8 WK (STUDY DURATION: 32 WK), Route [Inhibitor]: SUBCUTANEOUS, Species: HAMSTER, Strain/Sex: SYRIAN/FEMALE, Target Tissue: Type of Lesion: PANCREAS: ADENOCARCINOMA, Dose [Carcinogen]: TREATMENT FOR 6 WK (DOSE NOT STATED), Promoter: NONE USED) is listed as 12/12 (100%), 2/12 (17%), 83%, p<0.01.
